Source: US10959998B2, “Pharmaceutical use and pharmaceutical composition of pyrroloquinoline quinine, its derivatives and/or its salts” (priority 2015, dated 2021)
Marks after values point to notes of the source that are not given here.

How the values were obtained:
[1] = test system: ectopic endometrial stromal cells; test: MTT cell proliferation of ectopic endometrial stromal cells; format: cell-based, human
Description: Endometrial tissues were surgically isolated from patients with chocolate cyst of ovary, washed 2 to 3 times with PBS supplemented with antibiotics in ultra-clean cabinet, and cut into tiny pieces (about 1 mm^3 in size) with aseptic scissors. The tissues were digested with 1 mg/ml collagenase type I for 30 to 90 min at 37° C., and continually digested with Dnase I (final concentration of 15 U/ml, 2% Dnase I) for another 30 min. The digested tissues were filtered thorough 60-mesh stainless steel filter cell strainer to remove the undigested cell tissues, and were further filtered with 200- or 400-mesh strainer. The filtered solution was centrifuged at 1000 rpm for 5 min. After removing the supernatants, the cells were washed once with culture medium compounded by DMEM/F12 (1:1 v/v) and 10% fetal bovine serum, re-suspended in the culture medium, and seeded in 6-well tissue culture plate or T25 tissue culture flasks with an appropriate density. After 24 hours incubation, the culture medium was changed to remove the non-adherent blood cells, endothelial cells, macrophages and other miscellaneous cells. After primary human endometrial stromal cells were grown to reach 90% confluence, the cells were digested with 0.25% trypsin for 4 to 6 min, and then subcultured with a split ratio of 1:2 to 1:3. Vimentin which expresses specifically in stromal cells was detected by immuno-fluorescence to measure the cell purity. The cells of purity >95% were used in the following experiments. Primary ectopic endometrial stromal cells of human were subcultured and the subcultured cells of the 3th to 6th passages were chosen as experimental subjects. The cells in logarithmic growth phase were […] and incubated in the cell culture plate at a density of 50%˜60% (i.e. 2×10^4 cells/well). After growing adherent on the wall for 24 hours, the cultured cells were divided into groups and each group was given different doses of PQQ. 20 μL MTT (5 mg/ml in PBS, pH=7.4) was added to each well at indicated time points. The cells were incubated in an incubator at 37° C. in a 5% CO2 atmosphere for 4 h. At the end of incubation, the culture supernatant in each cell was carefully aspirated away. 150 μL DMSO was added to each well. Then the wells were shaken with Orbital shaker for 10 min. The absorbance of each cell was detected at wavelength 490 nm. Finally, the cell proliferation curve was drawn. Primary ectopic endometrial stromal cells were cultured and the subcultured cells of the 3th to 6th passage were chosen as experimental subjects. The cells in logarithmic growth phase were […] and incubated in the cell culture plate at a of 50%˜60% (e.g. 2×10^4 cells/well). The cells grew adhering to the wall for 24 hours before being treated with drugs. The cells were divided into groups and each group was given different dose of PQQ. At indicated time point, 20 μL […] (5 mg/ml in PBS, pH=7.4) was added to every well. The cells were then incubated in an incubator at 37° C. in a 5% CO2 atmosphere for 4 h. After terminating incubation, the culture supernatant in each cell was carefully aspirated away, but formazan crystals should not be aspirated away in any case. 150 μL DMSO was added to each well respectively. All the wells were shaken with Orbital shaker for 10 min to make the crystals adequately solubilized. The absorbance of each cell was detected at wavelength 490 nm. Finally, the cell proliferation curve was drawn.

[2] = test system: hydroxyl radical (.OH) in endometrial stromal cells; test: Determination of hydroxyl radical (.OH) content; format: cell-based, human; conditions: 18 h
Description: Superoxide anion (O2.^−) assay kit was purchased from Nanjing Jiancheng Bioengineering Insitute; Hydroxyl free radical assay kit was purchased from Shanghai Xinyu Biological Technology Co., Ltd., Hydrogen Peroxide Assay Kit was purchased from Beyotime Biotechnology Research Institute. The cells were seeded in 6-well plate at 8×10^5 cells/well, and incubated for 24 h after the cells adhered to the plate. Three different concentrations of PQQ (30 nm, 300 nm and 3 μm) were added to the cultures respectively. The cells were incubated for additional 18 h. At the end of the treatment, the cultured cells were collected. 50 μL samples were added to each cell, followed by addition of 50 μL of antibody working solution. The sample was shaken to achieve a uniform mixture, and reacted at 37° C. for 30 min. The plates were then washed for four to five times. 100 μL of enzyme marker was added to each well. The resulting mixture was allowed to react for 20 min at 37° C. Coloration method: 50 μL of buffer liquid and 50 μL of substrate solution were added to each well in sequence. The mixture solution was gently shaken to achieve a uniform mixing, and coloured for 10 min in the dark at 37° C. […] The optical density at wavelength 560 nm was measured with microplate reader (Read the data in 20 min).

[3] = test system: ectopic endometrial foci; test: Endometriosis rat model, weight of transplanted foci; format: in vivo, SD rats
[4] = test system: infiltration of endometrial stroma and glands into myometrium; test: Adenomyosis mouse model created with tamoxifen, pathological section; format: in vivo, mice
Description: Disodium salt of PQQ was used in the present experiment (PQQ-Na2, donated by MITSUBISHI gas chemical (MGC), Japan). The salt was dissolved with water and the concentration of its mother liquid is 1 mg/mL.
In the present Example, the mouse model of adenomyosis was created with tamoxifen. This method is easy to operate, the rate of molding can reach 100%, and the difference between the model mouses caused by the operation is small. At 2˜5 days after birth (the birth day was the first day), the mice were fed with 5 ul/(g·BW) peanut oil/lecithin/condensed milk mixture (volume ratio 2:0.2:3) supplemented with 0.2 mg/ml tamoxifen (produced by shanghai Fudan Fuhua Pharmaceutical Co, Ltd.) by drip feeding. In the negative control group, the mice were fed with peanut oil/lecithin/condensed milk mixture (volume ratio 2:0.2:3), with no tamoxifen added. All the mice were exposed to light for 12 h/day, and were reared by maternal lactation during 1-21 days of age. After 22 days of birth, the mice were separated with mother mice, and the female mice were reserved for the next experiment.
After 3 months, 7 model mice were killed after anesthesia. […] The remaining model mice were divided into 5 groups with 20 mice in each group. One of the groups was chosen as model control group (fed with normal water). The drinking water for other group were supplemented with PQQ (1 mg/kg/day), NAC (10 mg/kg/day), PQQ (1 mg/kg/day) +NAC (10 mg/kg/day) (denoted by P+N (H)); PQQ (0.2 mg/kg/day) +NAC (5 mg/kg/day) (denoted by P+N (L)).
After treatment with drugs for 4 weeks, the mice were killed by anesthesia. The uterus was surgically removed and the invasion of endometria into myometrium was analyzed by the pathological section.

[5] = 4 weeks in drinking water, PQQ (disodium salt) 1 mg/kg/day, NAC 10 mg/kg/day, P+N (H) 1+10, P+N (L) 0.2+5 mg/kg/day

With `O=C(O)c1cc(C(=O)O)c2c(n1)C(=O)C(=O)c1cc(C(=O)O)[nH]c1-2` [PQQ, pyrroloquinoline quinone] the “cell proliferation compared with the control group” value ([1]; PQQ 3 um, from 48 h after drug treatment, p<0.01) was “significantly inhibit cell proliferation”, the “cell proliferation compared with the control group” value ([1]; PQQ 30 nm, p>0.05) was “a certain inhibitory effect, but not significant” and the “cell proliferation compared with the control group” value ([1]; PQQ 300 nm, from 48 h after drug treatment, p<0.01) was “significantly inhibit cell proliferation”. For the same compound, the “relative content of hydroxyl radical (.OH)” value ([2]; PQQ 300 nM) was “significantly declined”, the “relative content of hydroxyl radical (.OH)” value ([2]; PQQ 3 uM) was “significantly declined” and the “weight of ectopic endometrial foci compared with the control group” value ([3]; Example 5, rats, after 4 weeks treatment) was “evidently lower than that from the control group”. For the same compound, the “weight of cysts after treatment (mg) Mean ± SD” value ([3]; Example 5, rats, water feeding 4 week, PQQ 1 mg/kg, NAC 10 mg/kg, Resveratro 10 mg/kg, n=9) was 71.2 ± 23.2 mg, the “weight of ectopic cys after treatment (mg) Mean ± SD” value ([3]; Example 7, rats, 4 weeks in drinking water, PQQ (disodium salt) 1 mg/kg/day, NAC 10 mg/kg/day, P+N (H) 1+10, P+N (L) 0.2+5 mg/kg/day, n=12) was 69.5 ± 12.7 mg and the “weight of ectopic cyst compared with model control group” value ([3]; Example 7, rats, after 4 weeks treatment, PQQ as disodium salt) was “evidently lower than that in the model control group”. The “infiltration of endometrial glands, positive animals/total animals” value [4, 5] was 9/20*#, the “infiltration of endometrial stroma, positive animals/total animals” value [4, 5] was 10/20*# and the “number of animals with infiltration of endometrial stroma and glands compared with model control group” value ([4]; after 4 weeks treatment, PQQ as disodium salt) was “evidently lower than that in the model control group”.
